Assays:
Assay type in all cases: cell-based, human
[1] = tested on: HeLa inducible NOD1 or NOD2 cells; assay: ELISA of IL6/IL8 in supernatants of HeLa inducible NOD1 or NOD2 cells
Protocol: (§1) To differentiate THP‐1 into macrophage‐like cells, THP‐1 cells were stimulated with 50 ng/ml phorbol 12‐myristate 13‐acetate (Sigma‐Aldrich, P8139) for 24 h and then incubated with fresh medium for another 48 h. […] To induce NOD1 or NOD2 expression, HeLa NOD1 or NOD2 cells were treated with 0.5 µg/ml or 0.25 µg/ml doxycycline for at least 16 h, respectively. All cells have been checked for mycoplasma contamination regularly. Bone marrow‐derived macrophages (BMDMs) were obtained from tibial and femural bones and generated with DMEM containing 20% L929 cell supernatant, 10% FBS, 5% heat‐inactivated horse serum, 1 mM sodium pyruvate, and 2 mM L‐glutamine. For BMDM stimulation experiments, BMDMs were treated with IFN‐γ (20 ng/ml) overnight before stimulation.

[2] = tested on: HEK293T WT and NOD1/2 KO NF‐κB reporter cells; assay: NF-κB luciferase assay and IL8 qRT-PCR in HEK293T WT and NOD1/2 KO cells; conditions: cytosolic S1P, HEK293T WT vs NOD1/2 KO
Protocol: HEK293T WT and NOD1/2 KO NF‐κB reporter cells were seeded in 96‐well plates and stimulated with various stressors for 8 h. Then, cells were lysed in lysis buffer (Thermo Fisher Scientific) and luciferase activities were determined with firefly luciferase glow kit (Thermo Fisher Scientific) according to the manufacturer’s instructions. Luciferase activities were normalized to the amount of protein determined with Coomassie Plus kit (Thermo Fisher Scientific). Fold inductions were calculated against normalized luciferase activities of corresponding controls.
Total RNA was isolated with TRIzol reagent, as described by the manufacturer (Invitrogen). RNA (1 μg) was used to generate cDNA via the iScript cDNA Synthesis Kit (Bio‐Rad), and qRT–PCR was performed using Power SYBR Green Master Mix (Applied Biosystems) in a StepOne Plus thermocycler (Applied Biosystems). The average threshold cycle (Ct) of quadruplicate reactions was employed for all subsequent calculations using the ΔΔCt method. Gene expression was normalized to glyceraldehyde‐3‐phosphate dehydrogenase (GAPDH), and fold changes were calculated against corresponding controls. qRT–PCR data were representative of at least three independent experiments, with at least 2 technical replicates per experiment. […]

[3] = tested on: HEK293T NOD1/2 KO cells transfected with NOD1 or NOD2 mutants; assay: IL8 ELISA of HEK293T cells transfected with NOD1/NOD2 mutants
Protocol: as §1
The mutagenesis was performed with Q5® site‐directed mutagenesis kit (E0554, NEB) according to the manufacturer's instructions. The primers used in this study were as follows: NOD1 E157A F: 5′‐[…]gcg[…]‐3′, NOD1 E157A R: 5′‐[…]‐3′, NOD1 D161A F: 5′‐[…]gcg[…]‐3′, NOD1 D161A R: 5′‐[…]‐3′, NOD1 D203A F: 5′‐[…]gcg[…]‐3′, D203A R: 5′‐[…]‐3′, L218A F: 5′‐[…]gcg[…]‐3′, L218A R: 5′‐[…]‐3′, R237A F: 5′‐[…]gcg[…]‐3′, R237A R: 5′‐[…]‐3′, H257A F: 5′‐[…]gcg[…]‐3′, H257A R: 5′‐[…]‐3′, E267A F: 5′‐[…]gcg[…]‐3′, E267A R: 5′‐[…]‐3′, H290A F: 5′‐[…]gcg[…]‐3′, H290A R: 5′‐[…]‐3′, E306A F: 5′‐[…]gcg[…]‐3′, E306A R: 5′‐[…]‐3′, K324A F: 5′‐[…]gcg[…]‐3′, K324A R: 5′‐[…]‐3′, K328A F: 5′‐[…]gcg[…]‐3′, K328A R: 5′‐[…]‐3′, R340A F: 5′‐[…]gcg[…]‐3′, R340A R: 5′‐[…]‐3′, R344A F: 5′‐[…]gcg[…]‐3′, R344A R: 5′‐[…]‐3′, R350A F: 5′‐[…]gcg[…]‐3′, R350A R: 5′‐[…]‐3′, D372A F: 5′‐[…]gcg[…]‐3′, D372A R: 5′‐[…]‐3′, R373A F: 5′‐[…]gcg[…]‐3′, R373A R: 5′‐[…]‐3′, R399A F: 5′‐[…]gcg[…]‐3′, R399A R: 5′‐[…]‐3′, D423A F: 5′‐[…]gcg[…]‐3′, D423A R: 5′‐[…]‐3′, R435A F: 5′‐5′‐[…]gcg[…]‐3′, R435A R: 5′‐[…]‐3′, Q484A F: 5′‐[…]gcg[…]‐3′, Q484A R: 5′‐[…]‐3′, L495A F: 5′‐[…]gcg[…]‐3′, L495A R: 5′‐[…]‐3′, E514A F: 5′‐[…]gcg[…]‐3′, E514A R: 5′‐[…]‐3′, H517A F: 5′‐[…]gcg[…]‐3′, H517A R: 5′‐[…]‐3′, L540A F: 5′‐[…]gcg[…]‐3′, L540A R: 5′‐[…]‐3′, F544A F: 5′‐[…]gcg[…]‐3′, and F544A R: 5′‐[…]‐3′.

CCCCCCCCCCCCC/C=C/[C@@H](O)[C@@H](N)COP(=O)(O)O [S1P, sphingosine‐1‐phosphate]
IL6 production compared to iE-DAP or MDP at the same concentration ([1]; 0.5, 5 or 20 µM with digitonin (5 µg/ml), Fig EV4E,F): higher IL6 production
IL6 production on co-stimulation vs single stimulation ([1]; S1P (2 µM) with iE-DAP or MDP (3, 20, 50 µM), digitonin, 20 h): significantly higher IL6 production
IL6 or IL8 production ([1]; cytosolic delivery with digitonin (5 µg/ml), 20 h): induced abundant IL6 or IL8 production
IL6 or IL8 production ([1]; extracellular stimulation (absence of digitonin), S1P 10 µM): did not induce marked IL6 or IL8 production
NF-κB activation and IL8 expression [2]: induced NOD1/2‐dependent NF‐κB activation and IL8 expression
IL8 production in cells expressing LRR-deficient NOD1/2 (NOD1/2∆LRR) ([3]; 20 µM with digitonin, 20 h): elevated
IL8 production in cells expressing NOD1/2 WT ([3]; 20 µM with digitonin, 20 h): induced
IL8 production / activation in HEK293T cells expressing NOD2 1007fs ([3]; 20 µM, 48 h, digitonin): increased
Activation (IL8) of NOD1 K328A or H517A ([3]; Fig EV5H): not

Source: PMC8246065 (The EMBO Journal, 2021)
